Data published in article PMC3706879, “The neurotrophic compound J147 reverses cognitive impairment in aged Alzheimer's disease mice” (Alzheimer's Research & Therapy, 2013).

Tests used:
huAPP/PS1 mice = assay: elevated plus maze in aged huAPP/PS1 mice; format: in vivo; conditions: 200 ppm in food for three months
Procedure: (§1) The APPswe/PS1ΔE9 transgenic mice have been previously characterized. The line 85 mice carry two transgenes, the mouse/human chimeric APP/Swe, linked to Swedish FAD and human PS1ΔE9. At 20 months of age both male and female transgenic mice were fed a high fat diet (Harlan Tekland, Madison, WI, USA) with and without J147 (200 ppm, 10 mg/kg/day). Treatment continued for three months and was followed by behavior testing and sacrifice of mice for tissue harvesting. […] (Data not shown).
The elevated plus maze analyzes the anxiety response of mice. This test relies upon the tendency of mice to have a fear of heights and to navigate towards dark enclosed spaces and remain there. Our maze is made of gray plastic and consists of four arms (two open without walls and two enclosed by 15.25 cm high walls) 30 cm long and 5 cm wide in the shape of a plus sign. The elevated plus maze is placed close to the center of the room, and has similar levels of illumination on both open and closed arms. A video-tracking system (Noldus EthoVision) is used to automatically collect behavioral data. […] Mice were then tested in the maze for a five-minute period while the software tracked and recorded the behavior of the mice. The anxiety of mice was measured by comparing the time spent in the open arms to time spent in the closed arms. […]

[1] = system: BACE, APP, NGF, BDNF, Homer-1, Egr3, phosphorylated CREB; assay: Western blotting of hippocampal or entorhinal cortex tissue of aged huAPP/PS1 mice; format: in vivo
Procedure: as §1
Hippocampal and entorhinal cortex tissue samples were homogenized in 10 volumes of RIPA lysis buffer (50 mM Tris, pH 7.5, 150 mM NaCl, 0.1% sodium dodecyl sulfate and 0.5% deoxycholate, and 1% NP40) containing a cocktail of protease and phosphatase inhibitors ([…] each of pepstatin A, aprotinin, phosphoramidon, and leupeptin; 0.5 mM 4-(2-aminoethyl) benzenesulfonyl fluoride hydrochloride; 1 mM EGTA; 5 mM fenvalerate; and 5 mM cantharidin). Samples were sonicated (2 × 10 s) and centrifuged at 100,000 × g for 60 minutes at 4°C. Protein concentrations in the cell extracts were determined using the BCA protein assay (Pierce supplied by Thermo Fisher Scientific, Rockford, IL, USA). Equal amounts of protein were solubilized in 2.5x SDS-sample buffer, separated on 12% SDS-polyacrylamide gels, transferred to Immobulin P and immunoblotted with the antibodies indicated in the Materials section. For Western blots, protein levels were normalized to actin levels. An unpaired t test was performed to compare between two groups at a single time point. When comparing multiple groups, one-way ANOVA followed by a Tukey's post hoc test was used. All statistical analysis was conducted using GraphPad Instat software.

[2] = hippocampus, vs control huAPP/PS1 mice

COc1cccc(/C=N/N(C(=O)C(F)(F)F)c2ccc(C)cc2C)c1 [J147, (E)-N-(2,4-dimethylphenyl)-2,2,2-trifluoro-N'-(3methoxybenzyli-dene) acetohydrazide]
disinhibition phenotype (time in the open arm) (huAPP/PS1 mice): completely rescued
protein level of β-secretase (BACE) ([1]; RIPA soluble fraction, hippocampus, vs untreated AD mice): significantly reduced
phosphorylated CREB ([1]; entorhinal cortex): significantly increased
mature BDNF protein level ([1]; hippocampus): increase
proBDNF protein level ([1]; hippocampus): increase
ratio of pro- to mature BDNF ([1]; hippocampus): decreased
ratio of proNGF to mature NGF ([1]; hippocampus): decreased significantly
Egr3 level ([1]; hippocampus, aged AD mice): significantly increased
Homer-1 levels ([1]; hippocampus, aged AD mice): significantly increased
mature NGF level [1, 2]: increases
proNGF level [1, 2]: increases
APP protein levels ([1]; soluble fractions of hippocampus, vs control AD mice): significantly increased
